From the NIST ThermoML archive (doi:10.1016/j.jct.2008.06.009)

Assay: xn = mol fraction of the nth substance listed
Conditions: Liquid, Bellows volumetry

N [ammonia] + O
mass density [kg/m3]
Conditions | x1 = 0.1048 | x1 = 0.2046 | x1 = 0.3807 | x1 = 0.5565 | x1 = 0.7008 | x1 = 0.801 | x1 = 0.9102 | x1 = 1
450 K, 10000 kPa | 843.9 | 796.9 | 708.1 | 608.5 | – | – | – | –
450 K, 20000 kPa | 850.4 | 804.3 | 718.8 | 625.9 | 534.7 | 458.5 | – | –
450 K, 30000 kPa | 856.6 | 811 | 728.1 | 639.8 | 557.7 | 495.6 | 422 | 355.3
450 K, 40000 kPa | 862.7 | 817.8 | 736.8 | 651.6 | 575.2 | 519.2 | 457.5 | 403.7
450 K, 50000 kPa | 868.5 | 823.8 | 744.9 | 662.2 | 589.4 | 537.4 | 481.3 | 433.4
450 K, 60000 kPa | 873.9 | 829.6 | 751.5 | 671.3 | 601.8 | 552.2 | 499.7 | 455.2
450 K, 70000 kPa | 879.1 | 835.4 | 758.3 | 680.1 | 612.5 | 564.9 | 514.8 | 472.6
450 K, 80000 kPa | 884.2 | 840.9 | 765.1 | 687.8 | 622.2 | 576 | 527.7 | 487.4
450 K, 90000 kPa | 889.2 | 845.9 | 771.1 | 695.3 | 631.2 | 586.2 | 539.1 | 500.2
450 K, 100000 kPa | 893.9 | 850.6 | 777.1 | 702.2 | 639.2 | 595.2 | 549.2 | 511.7
450 K, 120000 kPa | 902.7 | 860.3 | 788.1 | 714.8 | 654 | 611.5 | 566.9 | 531.4
450 K, 140000 kPa | 911.3 | 868.9 | 798.6 | 726.2 | 666.9 | 625.9 | 582.2 | 548.2
450 K, 160000 kPa | 919.5 | 877.1 | 807.9 | 736.6 | 678.7 | 638.7 | 595.6 | 563.1
450 K, 180000 kPa | 927 | 885.1 | 817.2 | 746.2 | 689.4 | 650.1 | 607.8 | 576.3
450 K, 200000 kPa | 934.3 | 892.2 | 825.3 | 755.2 | 699.3 | 660.9 | 618.7 | 588.2
500 K, 10000 kPa | 782.5 | 728.2 | – | – | – | – | – | –
500 K, 20000 kPa | 792.5 | 740.4 | 641.7 | 517 | – | – | – | –
500 K, 30000 kPa | 801.3 | 751.1 | 658.5 | 551.1 | 447.5 | – | – | –
500 K, 40000 kPa | 809.6 | 760.6 | 672.4 | 574 | 487.8 | 422 | – | –
500 K, 50000 kPa | 817.3 | 769.5 | 684.3 | 591.7 | 514.1 | 456.2 | – | 350.9
500 K, 60000 kPa | 824.3 | 777.5 | 695.3 | 606.4 | 534.1 | 480.7 | 426.9 | 384.9
500 K, 70000 kPa | 831.3 | 785.1 | 704.8 | 619 | 550.6 | 499.8 | 450 | 410.1
500 K, 80000 kPa | 837.7 | 792.1 | 713.9 | 630.1 | 564.5 | 515.8 | 468.5 | 430.2
500 K, 90000 kPa | 843.7 | 798.6 | 721.8 | 640.2 | 576.7 | 529.6 | 484.1 | 446.9
500 K, 100000 kPa | 849.7 | 805 | 729.7 | 649.4 | 587.6 | 541.6 | 497.6 | 461.5
500 K, 120000 kPa | 860.7 | 816.7 | 743.7 | 665.7 | 606.7 | 562.5 | 520.1 | 485.8
500 K, 140000 kPa | 870.8 | 827.5 | 756.6 | 679.9 | 623.1 | 580.1 | 538.9 | 505.9
500 K, 160000 kPa | 880.6 | 837.4 | 768.3 | 692.9 | 637.4 | 595.3 | 555 | 523.1
500 K, 180000 kPa | 889.4 | 846.7 | 779.3 | 704.5 | 650.4 | 608.9 | 569.2 | 538.3
500 K, 200000 kPa | 897.9 | 855.4 | 789.2 | 715 | 662.1 | 621.2 | 581.9 | 551.9
